# Measured values from US12059398B2, “Compositions of 1,3-butanediol and beta-hydroxybutyric acid to provide optimal therapeutic ketosis” (Health Via Modern Nutrition Inc., priority 2022, dated 2024).
# Columns and labels:
# [1] = system: potassium channels and nitric oxide synthase; details: cited from earlier work
# [2] = Blood D-BHB pharmacokinetics comparison of ketogenic nutritional compositions after ingestion; type: in vivo; details: for Blood D-BHB: dose 0.5 g (total BDO or BHB)/bodyweight kg, ingestion
# Experimental: FIG. 1 is a graph showing the blood D-BHB pharmacokinetics for eight ketogenic compositions, reporting blood D-BHB mM over a time period of six hours following ingestion of the ketogenic compositions.
# The blood D-BHB pharmacokinetics produced by different ketogenic nutritional compositions were evaluated and compared. The nutritional compositions include: 100% R-BDO; 90 wt. % R-BDO+10 wt. % D-BHB (acid/salt); 85 wt. % R-BDO+15 wt. % D-BHB (acid/salt); 80 wt. % R-BDO+20 wt. % D-BHB (acid/salt); 75 wt. % R-BDO+25 wt. % D-BHB (acid/salt); 70 wt. % BDO+30 wt. % D-BHB; 60 wt. % BDO+40 wt. % D-BHB; and 50% BDO+50% D-BHB via R-1,3 BDO−D-BHB monoester. The compositions were administered at a dose of 0.5 g (total BDO or BHB excluding mineral or base pairs)/bodyweight kg.
# The nutritional compositions include: 100% R-BDO; 90 wt. % R-BDO+10 wt. % D-BHB (acid/salt); 85 wt. % R-BDO+15 wt. % D-BHB (acid/salt); 80 wt. % R-BDO+20 wt. % D-BHB (acid/salt); 75 wt. % R-BDO+25 wt. % D-BHB (acid/salt); 70 wt. % BDO+30 wt. % D-BHB; 60 wt. % BDO+40 wt. % D-BHB; and 50% BDO+50% D-BHB via R-1,3 BDO−D-BHB monoester.
# By integrating over time rather than looking at individual concentration measurements, a more accurate estimate of the overall exposure to the drug is obtained.
# [3] = dose 0.5 g/bodyweight kg, six hours following ingestion
Molecule,Effect on age-associated endothelial-dependent and -independent dysfunction ([1]; not associated with increased blood BHB concentration),Direct vasodilator mechanism ([1]; through activation of potassium channels and nitric oxide synthase),Blood D-BHB ([2]; 0 minutes) [mM],Blood D-BHB ([2]; 60 minutes) [mM],Blood D-BHB ([2]; 120 minutes) [mM],Blood D-BHB ([2]; 180 minutes) [mM],Blood D-BHB ([2]; 240 minutes) [mM],Blood D-BHB ([2]; 300 minutes) [mM],Blood D-BHB ([2]; 360 minutes) [mM],"Duration of Blood D-BHB Concentrations between 1 mM and 2.5 mM [2, 3] [min]","Total AUC mM × minutes in optimal therapeutic ketosis range of 1-2.5 mM [2, 3] [mM·min]"
"C[C@@H](O)CCO [100% R-1,3-BDO (natural), R-1,3-butanediol]",sufficient to reverse age-associated endothelial-dependent and -independent dysfunction,predominantly an endothelium-dependent vasodilator,–,–,–,–,–,–,–,–,–
"R-1,3 BDO−D-BHB monoester",–,–,0.3,4.3,1.9,1.3,0.5,0.3,0.2,158,98.3
